Measurements as given in patent publication US9944666B2, “Compounds that are S1P modulating agents and/or ATX modulating agents” (BIOGEN MA INC., priority 2012, dated 2018).
pIC50: −log10 of the molar value.

Biological target: T1, Human ATX protein (Homo sapiens, UniProt Q13822)
T1 construct: made in house
Assay: ATX biochemical FRET assay with FS-3 substrate
Conditions: FS-3 2 μM, ATX 1.0 μg/mL, room temperature 2 hours, fluorescence 485/538 nm
From the text: ATX (Autotaxin) is a 125 KDa glycoprotein with lysophospholipase D (LPLD) activity that generates the bioactive lipid lysophosphatidic acid (LPA) from lysophosphatidylcholine (LPC). The ATX biochemical assay utilizes a FRET (fluorescence resonance energy transfer) technology platform. The fluorescence signal of FRET substrate FS-3 is quenched due to intra-molecular FRET of a fluorophore to a non-fluorescing quencher (Ferguson, C. G., et al., Org Lett. 2006 May 11; 8(10): 2023-2026, which is incorporated by reference in its entirety). ATX catalyzes the hydrolysis of the substrate which separates the dabsyl quencher from the fluorescein reporter, which becomes fluorescent. The reaction is monitored by a SpectraMax M5 (Molecular Devices, Sunnyvale, Calif.) with at excitation wavelength 485 nm and emission wavelength […].
Fatty acid free-BSA (Sigma A8806): 10 mg/ml, in H2O, stored at 4° C.
2×ATX assay buffer: 100 mM Tris, 280 mM NaCl, 10 mM KCl, 2 mM CaCl2, 2 mM MgCl2, pH 7.4.
Human ATX protein: expressed and purified in house. Stored at −80° C.
Substrate FS-3 (Echelon, L-2000): 100 μg in 77.74 μL H2O (1 mM stock), stored at −20° C.
384-well flat bottom plates—Corning #3575.
Compound dilution—All compounds were provided at 10 mM in 100% DMSO. In the first well, 2 μL of 10 mM compound was added to 78 μL of DMSO (1:40 dilution). In subsequent wells 3-fold dilution (total 10 dilutions) were performed.
1×ATX assay buffer was made up with a final concentration of 1 mg/mL fatty acid free-BSA using 2×ATX assay buffer, 10 mg/ml fatty acid free-BSA and ddH2O.
ATX protein was diluted with 1×ATX assay buffer to a concentration of 1.32 μg/mL (1.32×). 38 μL was added per well to the assay plate. The final concentration of ATX in the reaction as 1.0 μg/mL.
2 μL per well of compounds was transferred to provide the desired concentration. The plate was centrifuged, then incubated at room temperature for 30 minutes on the shaker.
FS-3 was diluted with 1×ATX assay buffer to a concentration of FS-3 of 10 μM (5×). Then, 10 μL was added per well to the assay plate. The final concentration of FS-3 in the reaction was 2 μM. The plate was centrifuged. The plate was kept shaking at room temperature for 2 hours. Because FS-3 substrate is light sensitive, plates were kept covered and protected from light.
Fluorescence was measured using SpectraMax M5 (excitation at 485 nm/emission at 538 nm, top read).

Question: How did the pIC50 turn out when `CC[C@H]1CC[C@@H](Oc2ccc3cc(C(C)N4C5CCC4CC(C(=O)O)C5)ccc3c2C(F)(F)F)CC1` (relative stereo) [Example 176, 8-(1-(6-((cis-4-ethylcyclohexyl)oxy)-5-(trifluoromethyl)naphthalen-2-yl)ethyl)-8-azabicyclo[3.2.1]octane-3-carboxylic acid] was run?
Answer: ≥ 7.00

Question: `CCC(c1ccc2c(C(F)(F)F)c(O[C@H]3CC[C@@H](C(F)(F)F)CC3)ccc2c1)N1C2CCCC1CC(C(=O)O)C2` (relative stereo) [Example 177, 9-(1-(6-((cis-4-trifluoromethylcyclohexyl)oxy)-5-(trifluoromethyl)naphthalen-2-yl)propyl)-9-azabicyclo[3.3.1]nonane-3-carboxylic acid] was tested. Which pIC50 did it give?
Answer: ≥ 7.00

Question: How did the pIC50 turn out when `CCC(c1ccc2c(C(F)(F)F)c(O[C@H]3CC[C@@H](C(F)(F)F)CC3)ccc2c1)N1C2CCC1CC(C(=O)O)C2` (relative stereo) [Example 178, 8-(1-(6-((cis-4-trifluoromethylcyclohexyl)oxy)-5-(trifluoromethyl)naphthalen-2-yl)propyl)-8-azabicyclo[3.2.1]octane-3-carboxylic acid] was run?
Answer: ≥ 7.00

Question: With `CCC(c1ccc2c(C(F)(F)F)c(O[C@H]3CC[C@@H](CC)CC3)ccc2c1)N1C2CCCC1CC(C(=O)O)C2` (relative stereo) [Example 179, 9-(1-(6-((cis-4-ethylcyclohexyl)oxy)-5-(trifluoromethyl)naphthalen-2-yl)propyl)-9-azabicyclo[3.3.1]nonane-3-carboxylic acid] as the compound, how does the pIC50 read?
Answer: ≥ 7.00

Question: With `CCC(c1ccc2c(C(F)(F)F)c(O[C@H]3CC[C@@H](CC)CC3)ccc2c1)N1C2CCC1CC(C(=O)O)C2` (relative stereo) [Example 180, 8-(1-(6-((cis-4-ethylcyclohexyl)oxy)-5-(trifluoromethyl)naphthalen-2-yl)propyl)-8-azabicyclo[3.2.1]octane-3-carboxylic acid] as the compound, how does the pIC50 read?
Answer: ≥ 7.00

Question: With `CC[C@H]1CC[C@@H](Oc2ccc3cc(C(C)N4C5CCCC4CC(C(=O)O)C5)ccc3c2Cl)CC1` (relative stereo) [Example 182, 9-(1-(6-((cis-4-ethylcyclohexyl)oxy)-5-chloronaphthalen-2-yl)ethyl)-9-azabicyclo[3.3.1]nonane-3-carboxylic acid] as the compound, how does the pIC50 read?
Answer: ≥ 7.00

Question: With `C[C@H]1CC[C@@H](Oc2ccc3cc(CN4C5CCCC4CC(C(=O)O)C5)ccc3c2Cl)CC1` (relative stereo) [Example 183, 9-((5-Chloro-6-((cis-4-methylcyclohexyl)oxy)naphthalen-2-yl)methyl)-9-azabicyclo[3.3.1]nonane-3-carboxylic acid] as the compound, how does the pIC50 read?
Answer: ≥ 6.60

Question: With `CC[C@H]1CC[C@@H](Oc2ccc3cc(C(C)N4C5CCC4CC(C(=O)O)C5)ccc3c2Cl)CC1` (relative stereo) [Example 184, 8-(1-(5-Chloro-6-((cis-4-ethylcyclohexyl)oxy)naphthalen-2-yl)ethyl)-8-azabicyclo[3.2.1]octane-3-carboxylic acid] as the compound, how does the pIC50 read?
Answer: ≥ 7.00

Question: `CC[C@H]1CC[C@@H](Oc2ccc3cc(CN4C5CCC4CC(C(=O)O)C5)ccc3c2Cl)CC1` (relative stereo) [Example 185, 8-((5-Chloro-6-((cis-4-ethylcyclohexyl)oxy)naphthalen-2-yl)methyl)-8-azabicyclo[3.2.1]octane-3-carboxylic acid] was tested. Which pIC50 did it give?
Answer: ≥ 7.00

Question: How did the pIC50 turn out when `C[C@H](c1ccc2c(C(F)(F)F)c(O[C@H]3CC[C@@H](C(F)(F)F)CC3)ccc2c1)N1C2CCCC1CC(C(=O)O)C2` (single isomer, unassigned) [Example 89] was run?
Answer: ≥ 7.00

Question: How did the pIC50 turn out when `C[C@@H](c1ccc2c(C(F)(F)F)c(O[C@H]3CC[C@@H](C(F)(F)F)CC3)ccc2c1)N1C2CCCC1CC(C(=O)O)C2` (single isomer, unassigned) [Example 90] was run?
Answer: ≥ 7.00

Question: How did the pIC50 turn out when `CC[C@@H](c1ccc2c(C(F)(F)F)c(O[C@H]3CC[C@@H](C)CC3)ccc2c1)N1C2CCC1CC(C(=O)O)C2` (single isomer, unassigned) [Example 233, 8-((s)-1-(6-((cis-4-methylcyclohexyl)oxy)-5-(trifluoromethyl)naphthalen-2-yl)propyl)-8-azabicyclo[3.2.1]octane-3-carboxylic acid] was run?
Answer: ≥ 7.00

Question: `CC[C@H]1CC[C@@H](Oc2ccc3cc([C@@H](C)N4C5CCCC4CC(C(=O)O)C5)ccc3c2Cl)CC1` (single isomer, unassigned) [Example 238] was tested. Which pIC50 did it give?
Answer: ≥ 7.00

Question: `C[C@H](c1ccc2c(Cl)c(O[C@H]3CC[C@@H](C(F)(F)F)CC3)ccc2c1)N1C2CCCC1CC(C(=O)O)C2` (single isomer, unassigned) [Example 240] was tested. Which pIC50 did it give?
Answer: ≥ 7.00

Question: `C[C@H](c1ccc2c(Cl)c(O[C@H]3CC[C@@H](C(F)(F)F)CC3)ccc2c1)N1C2CCC1CC(C(=O)O)C2` (single isomer, unassigned) [Example 242] was tested. Which pIC50 did it give?
Answer: ≥ 7.00

Question: `CC[C@@H](c1ccc2c(Cl)c(O[C@H]3CC[C@@H](CC)CC3)ccc2c1)N1C2CCCC1CC(C(=O)O)C2` (single isomer, unassigned) [Example 249] was tested. Which pIC50 did it give?
Answer: ≥ 7.00

Question: How did the pIC50 turn out when `CC[C@H](c1ccc2c(C(F)(F)F)c(O[C@H]3CC[C@@H](C(F)(F)F)CC3)ccc2c1)N1C2CCC1CC(C(=O)O)C2` (single isomer, unassigned) [Example 287] was run?
Answer: ≥ 7.00

Question: `CC[C@@H](c1ccc2c(C(F)(F)F)c(O[C@H]3CC[C@@H](C(F)(F)F)CC3)ccc2c1)N1C2CCC1CC(C(=O)O)C2` (single isomer, unassigned) [Example 288] was tested. Which pIC50 did it give?
Answer: ≥ 6.60

Question: How did the pIC50 turn out when `CC[C@H]1CC[C@@H](Oc2ccc3cc([C@@H](C)N4C5CCC4CC(C(=O)O)C5)ccc3c2C(F)(F)F)CC1` (single isomer, unassigned) [Example 289] was run?
Answer: ≥ 7.00

Question: `CC[C@H]1CC[C@@H](Oc2ccc3cc([C@H](C)N4C5CCC4CC(C(=O)O)C5)ccc3c2C(F)(F)F)CC1` (single isomer, unassigned) [Example 290] was tested. Which pIC50 did it give?
Answer: ≥ 7.00

Question: How did the pIC50 turn out when `CC[C@H]1CC[C@@H](Oc2ccc3cc([C@@H](C)N4C5CCCC4CC(C(=O)O)C5)ccc3c2C(F)(F)F)CC1` (single isomer, unassigned) [Example 291] was run?
Answer: ≥ 7.00

Question: How did the pIC50 turn out when `CC[C@H]1CC[C@@H](Oc2ccc3cc([C@H](C)N4C5CCCC4CC(C(=O)O)C5)ccc3c2C(F)(F)F)CC1` (single isomer, unassigned) [Example 292] was run?
Answer: ≥ 7.00

Question: How did the pIC50 turn out when `CC[C@H](c1ccc2c(C(F)(F)F)c(O[C@H]3CC[C@@H](CC)CC3)ccc2c1)N1C2CCC1CC(C(=O)O)C2` (single isomer, unassigned) [Example 293] was run?
Answer: ≥ 6.30

Question: With `CC[C@@H](c1ccc2c(C(F)(F)F)c(O[C@H]3CC[C@@H](CC)CC3)ccc2c1)N1C2CCC1CC(C(=O)O)C2` (single isomer, unassigned) [Example 294] as the compound, how does the pIC50 read?
Answer: ≥ 7.00

Question: With `CC[C@H](c1ccc2c(C(F)(F)F)c(O[C@H]3CC[C@@H](C(F)(F)F)CC3)ccc2c1)N1C2CCCC1CC(C(=O)O)C2` (single isomer, unassigned) [Example 295] as the compound, how does the pIC50 read?
Answer: ≥ 6.60

Question: How did the pIC50 turn out when `CC[C@@H](c1ccc2c(C(F)(F)F)c(O[C@H]3CC[C@@H](C(F)(F)F)CC3)ccc2c1)N1C2CCCC1CC(C(=O)O)C2` (single isomer, unassigned) [Example 296] was run?
Answer: ≥ 7.00

Question: With `CC(c1ccc2c(C(F)(F)F)c(O[C@H]3CC[C@@H](C)CC3)ccc2c1)N1C2CCCC1CC(C(=O)O)C2` (single isomer, unassigned; enantiomer 1) [Example 94, 9-(1-(6-((cis-4-Methylcyclohexyl)oxy)-5-(trifluoromethyl)naphthalen-2-yl)ethyl)-9-azabicyclo[3.3.1]nonane-3-carboxylic acid, enantiomer 1] as the compound, how does the pIC50 read?
Answer: ≥ 7.00

Question: How did the pIC50 turn out when `CC(c1ccc2c(C(F)(F)F)c(O[C@H]3CC[C@@H](C)CC3)ccc2c1)N1C2CCC1CC(C(=O)O)C2` (single isomer, unassigned; enantiomer 1) [Example 130, 8-(1-(6-((cis-4-Methylcyclohexyl)oxy)-5-(trifluoromethyl)naphthalen-2-yl)ethyl)-8-azabicyclo[3.2.1]octane-3-carboxylic acid, enantiomer 1] was run?
Answer: ≥ 6.60

Question: `CC(c1ccc2c(C(F)F)c(O[C@H]3CC[C@@H](C)CC3)ccc2c1)N1C2CCC1CC(C(=O)O)C2` (single isomer, unassigned; enantiomer 1) [Example 136, 8-(1-(5-(difluoromethyl)-6-((cis-4-methylcyclohexyl)oxy)naphthalen-2-yl)ethyl)-8-azabicyclo[3.2.1]octane-3-carboxylic acid, enantiomer 1] was tested. Which pIC50 did it give?
Answer: ≥ 7.00
